By IC50 is commonly meant the point on the concentration scale where inhibition reaches its midpoint. Higher therefore signals a need for much substance.

Our source for the IC50 values is US20230416227A1, “PLASMA KALLIKREIN INHIBITORS” (Merck Sharp & Dohme LLC, priority 2020, published 2023).

In this experiment the target is T1, Human plasma kallikrein (Homo sapiens, UniProt P03952).
T1 construct: yields a heavy chain (371 amino acids) and a light chain (248 amino acids); purchased Enzyme Research Laboratories
T1 sequence (P03952 391-638 limits assumed): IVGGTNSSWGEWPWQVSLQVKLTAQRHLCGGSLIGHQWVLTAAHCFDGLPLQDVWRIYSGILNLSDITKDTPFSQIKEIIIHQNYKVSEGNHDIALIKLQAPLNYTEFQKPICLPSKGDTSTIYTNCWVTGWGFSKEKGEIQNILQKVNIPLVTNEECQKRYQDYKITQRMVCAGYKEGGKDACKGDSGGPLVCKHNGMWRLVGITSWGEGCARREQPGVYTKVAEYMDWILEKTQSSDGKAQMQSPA
T1 sequence (P03952 20-390 partner limits assumed): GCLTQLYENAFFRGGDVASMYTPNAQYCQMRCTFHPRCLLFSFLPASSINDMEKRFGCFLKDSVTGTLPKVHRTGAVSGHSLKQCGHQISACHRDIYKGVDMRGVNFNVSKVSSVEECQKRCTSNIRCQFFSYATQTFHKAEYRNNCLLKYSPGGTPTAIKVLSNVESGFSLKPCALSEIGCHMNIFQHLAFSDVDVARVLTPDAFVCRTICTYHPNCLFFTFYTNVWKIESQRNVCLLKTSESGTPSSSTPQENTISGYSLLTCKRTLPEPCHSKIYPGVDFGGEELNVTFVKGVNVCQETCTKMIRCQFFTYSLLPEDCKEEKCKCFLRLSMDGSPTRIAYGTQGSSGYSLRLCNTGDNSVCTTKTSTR
Description: Plasma Kallikrein Assay. The following applies: purified Human plasma kallikrein 0.5 nM, substrate Acetyl-K-P-R-AFC, pH 7.4. The class given is biochemical. As to the method: The effectiveness of a compound of the present invention as an inhibitor of plasma kallikrein can be determined using a relevant purified serine protease, and an appropriate synthetic substrate. The rate of hydrolysis of the chromogenic or fluorogenic substrate by the relevant serine protease was measured both in the absence and presence of compounds of the present invention. Assays were conducted at rt or at 37° C. […] A decrease in the rate of fluorescence change in the presence of inhibitor is indicative of enzyme inhibition. Such methods are known to one skilled in the art. The results of this assay are expressed as the half-maximal inhibitory concentrations (IC50), or the inhibitory constant, Ki.
Plasma kallikrein determinations were made in 50 mM HEPES buffer at pH 7.4 containing 150 mM NaCl, 5 mM CaCl2), and 0.1% PEG 8000 (polyethylene glycol; Fisher Scientific). […]
Times required to achieve equilibration between enzyme and inhibitor were determined in control experiments. The reactions were performed under linear progress curve conditions and fluorescence increase measured at 405 Ex/510 Em nm. […] IC50 was determined by inflection point from a four parameter logistic curve fit. Ki was calculated using the Cheng Prusoff equation, Ki=IC50/(1+([S]/Km)).

For the compound `CC1CCN1c1ncc(C(C)n2cc(NC(=O)c3cncc(-c4c(C(F)F)ccc(Cl)c4F)n3)cn2)cn1` (racemic) [Example 100, 6-(3-Chloro-6-(difluoromethyl)-2-fluorophenyl)-N-(1-((R and S)-1-(2-((R and S)-2-methylazetidin-1-yl)pyrimidin-5-yl)ethyl)-1H-pyrazol-4-yl)pyrazine-2-carboxamide], inhibition was half-maximal at 20.6 nM (IC50).
In the case of `CC(c1cnc(N2CCC[C@@H]2C(N)=O)nc1)n1cc(NC(=O)c2cncc(-c3c(C(F)F)ccc(Cl)c3F)n2)cn1` (mixture of isomers) [Example 104, N-(1-((R and S)-1-(2-((R)-2-Carbamoylpyrrolidin-1-yl)pyrimidin-5-yl)ethyl)-1H-pyrazol-4-yl)-6-(3-chloro-6-(difluoromethyl)-2-fluorophenyl)pyrazine-2-carboxamide], 32.9 nM corresponded to half-maximal inhibition (IC50).
The same measure for `CC(c1cnc(N2CC3CC3C2)nc1)n1cc(NC(=O)c2nc(-c3c(C(F)F)ccc(Cl)c3F)cnc2N)cn1` (single isomer, unassigned) [Example 33, N-(1-((1S or 1R)-1-(2-(3-azabicyclo[3.1.0]hexan-3-yl)pyrimidin-5-yl)ethyl)-1H-pyrazol-4-yl)-3-amino-6-(3-chloro-6-(difluoromethyl)-2-fluorophenyl)pyrazine-2-carboxamide]: 26.5 nM; for `O=C(Nc1cnn(C2CCc3nc(N4CCC4)ccc32)c1)c1cncc(-c2c(C(F)F)ccc(Cl)c2F)n1` (single isomer, unassigned) [Example 35, (S or R)-N-(1-(2-(azetidin-1-yl)-6,7-dihydro-5H-cyclopenta[b]pyridin-5-yl)-1H-pyrazol-4-yl)-6-(3-chloro-6-(difluoromethyl)-2-fluorophenyl)pyrazine-2-carboxamide]: 33.2 nM.
The same measure for `CC1C2CC2CN1c1ncc(C(CO)n2cc(NC(=O)c3cncc(-c4c(C(F)F)ccc(Cl)c4F)n3)cn2)cn1` (single isomer, unassigned) [Example 48, 6-(3-Chloro-6-(difluoromethyl)-2-fluorophenyl)-N-(1-((S or R)-2-hydroxy-1-(2-((1S,2R,5R or 1R, 2S, 5S)-2-methyl-3-azabicyclo[3.1.0]hexan-3-yl)pyrimidin-5-yl)ethyl)-1H-pyrazol-4-yl)pyrazine-2-carboxamide]: 730 nM.
The same measure for `CC1C2CC2CN1c1ncc(C(CO)n2cc(NC(=O)c3cncc(-c4c(C(F)F)ccc(Cl)c4F)n3)cn2)cn1` (single isomer, unassigned) [Example 49, 6-(3-Chloro-6-(difluoromethyl)-2-fluorophenyl)-N-(1-((R or S)-2-hydroxy-1-(2-((1S,2R,5R or 1R,2S, 5S)-2-methyl-3-azabicyclo[3.1.0]hexan-3-yl)pyrimidin-5-yl)ethyl)-1H-pyrazol-4-yl)pyrazine-2-carboxamide]: 17.6 nM; for `CC1C2CC2CN1c1ncc(C(CO)n2cc(NC(=O)c3cncc(-c4c(C(F)F)ccc(Cl)c4F)n3)cn2)cn1` (single isomer, unassigned) [Example 50, 6-(3-Chloro-6-(difluoromethyl)-2-fluorophenyl)-N-(1-((S or R)-2-hydroxy-1-(2-((1R,2S,5S or 1S,2R, 5R)-2-methyl-3-azabicyclo[3.1.0]hexan-3-yl)pyrimidin-5-yl)ethyl)-1H-pyrazol-4-yl)pyrazine-2-carboxamide]: 1120 nM; for `CC1C2CC2CN1c1ncc(C(CO)n2cc(NC(=O)c3cncc(-c4c(C(F)F)ccc(Cl)c4F)n3)cn2)cn1` (single isomer, unassigned) [Example 51, 6-(3-Chloro-6-(difluoromethyl)-2-fluorophenyl)-N-(1-((R or S)-2-hydroxy-1-(2-((1R,2S,5S or 1S,2R, 5R)-2-methyl-3-azabicyclo[3.1.0]hexan-3-yl)pyrimidin-5-yl)ethyl)-1H-pyrazol-4-yl)pyrazine-2-carboxamide]: 3770 nM.
In turn, `Cc1cc(N2CCC2)ncc1[C@@H](C)n1cc(NC(=O)c2cncc(-c3c(C(F)F)ccc(Cl)c3F)n2)cn1` (single isomer, unassigned) [Example 67] showed an IC50 of 153 nM. This IC50 is about 25-fold lower than that of the compound before.
The same measure for `C[C@@H](c1cnc(N2C[C@@H]3C[C@@H]3[C@@H]2CO)nc1)n1cc(NC(=O)c2cncc(-c3c(C(F)F)ccc(Cl)c3F)n2)cn1` (single isomer, unassigned) [Example 86, 6-(3-Chloro-6-(difluoromethyl)-2-fluorophenyl)-N-(1-((S or R)-1-(2-((1S,2R,5R or 1R,2S,5S)-2-(hydroxymethyl)-3-azabicyclo[3.1.0]hexan-3-yl)pyrimidin-5-yl)ethyl)-1H-pyrazol-4-yl)pyrazine-2-carboxamide]: 13.3 nM.
In turn, `O=C(Nc1cnn(Cc2cnc(N3CCC4OCCC43)nc2)c1)c1cncc(-c2c(C(F)F)ccc(Cl)c2F)n1` (single isomer, unassigned) [Example 103, 6-(3-Chloro-6-(difluoromethyl)-2-fluorophenyl)-N-(1-((2-((3aS,6aS or 3aR,6aR)-hexahydro-4H-furo[3,2-b]pyrrol-4-yl)pyrimidin-5-yl)methyl)-1H-pyrazol-4-yl)pyrazine-2-carboxamide] displayed an IC50 of 31.3 nM.
The compound `CC(C)(O)CC1CCCN1c1ncc(Cn2cc(NC(=O)c3cncc(-c4c(C(F)F)ccc(Cl)c4F)n3)cn2)cn1` (single isomer, unassigned) [Example 110, (S or R)-6-(3-Chloro-6-(difluoromethyl)-2-fluorophenyl)-N-(1-((2-(2-(2-hydroxy-2-methylpropyl)pyrrolidin-1-yl)pyrimidin-5-yl)methyl)-1H-pyrazol-4-yl)pyrazine-2-carboxamide] gave an IC50 of 46.2 nM.
The same measure for `O=C(Nc1cnn(Cc2cnc(N3CCCC3CC3(O)CC3)nc2)c1)c1cncc(-c2c(C(F)F)ccc(Cl)c2F)n1` (single isomer, unassigned) [Example 112, (S or R)-6-(3-Chloro-6-(difluoromethyl)-2-fluorophenyl)-N-(1-((2-(2-((1-hydroxycyclopropyl)methyl)pyrrolidin-1-yl)pyrimidin-5-yl)methyl)-1H-pyrazol-4-yl)pyrazine-2-carboxamide]: 49.2 nM; for `O=C(Nc1cnn(Cc2ccc(N3CCC4OCCC43)nc2)c1)c1cncc(-c2c(C(F)F)ccc(Cl)c2F)n1` (single isomer, unassigned) [Example 122, 6-(3-Chloro-6-(difluoromethyl)-2-fluorophenyl)-N-(1-((6-((3aR,6aR or 3aS,6aS)-hexahydro-4H-furo[3,2-b]pyrrol-4-yl)pyridin-3-yl)methyl)-1H-pyrazol-4-yl)pyrazine-2-carboxamide]: 19.5 nM; for `CC(N)C1CCCN1c1ncc(Cn2cc(NC(=O)c3cncc(-c4c(C(F)F)ccc(Cl)c4F)n3)cn2)cn1` (single isomer, unassigned) [Example 156, N-(1-((2-(2-(1-Aminoethyl)pyrrolidin-1-yl)pyrimidin-5-yl)methyl)-1H-pyrazol-4-yl)-6-(3-chloro-6-(difluoromethyl)-2-fluorophenyl)pyrazine-2-carboxamide]: 7.3 nM.
The same measure for `CC(N)C1CCCN1c1ncc(Cn2cc(NC(=O)c3cncc(-c4c(C(F)F)ccc(Cl)c4F)n3)cn2)cn1` (single isomer, unassigned) [Example 160, N-(1-((2-(2-(1-Aminoethyl)pyrrolidin-1-yl)pyrimidin-5-yl)methyl)-1H-pyrazol-4-yl)-6-(3-chloro-6-(difluoromethyl)-2-fluorophenyl)pyrazine-2-carboxamide]: 42.9 nM; for `C[C@H](c1cnc(N2C[C@H]3C[C@H]3[C@H]2C#N)nc1)n1cc(NC(=O)c2cncc(-c3c(C(F)F)ccc(Cl)c3F)n2)cn1` (single isomer, unassigned) [Example 196]: 4.7 nM; for `CC(c1cnc(N2CC3CC3C2C#N)nc1)n1cc(NC(=O)c2cncc(-c3c(C(F)F)ccc(Cl)c3F)n2)cn1` (single isomer, unassigned) [Example 197]: 412 nM.
The same measure for `CC(c1cnc(N2CC3CC3C2C#N)nc1)n1cc(NC(=O)c2cncc(-c3c(C(F)F)ccc(Cl)c3F)n2)cn1` (single isomer, unassigned) [Example 198]: 189 nM.
For `CC(c1cnc(N2C[C@H]3C[C@H]3C2C(=O)N(C)C)nc1)n1cc(NC(=O)c2cncc(-c3c(C(F)F)ccc(Cl)c3F)n2)cn1` (single isomer, unassigned) [Example 201, (1R,2S,5S or 1S,2R,5R)-3-(5-((S or R)-1-(4-(6-(3-Chloro-6-(difluoromethyl)-2-fluorophenyl)pyrazine-2-carboxamido)-1H-pyrazol-1-yl)ethyl)pyrimidin-2-yl)-N,N-dimethyl-3-azabicyclo[3.1.0]hexane-2-carboxamide], the IC50 came to 6.2 nM.
In the case of `CC(c1cnc(N2C[C@H]3C[C@H]3C2C(=O)N(C)C)nc1)n1cc(NC(=O)c2cncc(-c3c(C(F)F)ccc(Cl)c3F)n2)cn1` (single isomer, unassigned) [Example 203, (1R,2S,5S or 1S,2R,5R)-3-(5-((S or R)-1-(4-(6-(3-Chloro-6-(difluoromethyl)-2-fluorophenyl)pyrazine-2-carboxamido)-1H-pyrazol-1-yl)ethyl)pyrimidin-2-yl)-N,N-dimethyl-3-azabicyclo[3.1.0]hexane-2-carboxamide], the IC50 stood at 77.8 nM.
